Experimental data from US20260102407A1, “TREATMENT METHODS” (priority 2020, published 2026).

Experiment: BT2 formulation analysis by RRLC-MS/MS and LC/MS (stability)
Type: physicochemical
Conditions: for discrepancy in BT2 content: 6 weeks storage at 22° C.
Experimental: BT2 formulation analysis using RRLC-MS/MS. A rapid resolution liquid chromatography/tandem mass spectrometry (RRLC-MS/MS) method was developed under GLP by Iris Pharma using an Agilent 1200 Triple Quad G6410B to determine BT2 content in heat-treated or non-heat treated BT2 formulations at 1 week (T1 week) or 6 weeks (T6 weeks) after preparation at room temperature. The formulations were heat (H)-treated (tubes placed in a 100° C. water bath for 10 min) or non-heat treated sonicated formulations of BT2 in saline containing 0.5% Tween 80 and 0.01% DMSO). Standard curves were constructed with 8 concentrations between the lower limit of quantification (LLOQ) and the upper limit of quantification (ULOQ). Evaluations were performed on 3 preparations at the same dilution. Chromatograms were integrated using MassHunter software. For BT2 content analysis (T1 week and T6 weeks), calculation of mean, SD, CV (%) and bias (%) were performed as follows: For T1, the theoretical concentration (i.e. the weighed/formulated material supplied) was used as reference to calculate the bias (%) of each preparation containing the test sample:
Standard curves were fitted using Excel® version 2011. For each run, bias on back-calculated concentration of the standard curve and QC was determined, with back-calculated concentrations of the calibration standards being set within ±15% of the theoretical value, except for the LLOQ for which it was set within ±20%. At least 75% of the calibration standards, with a minimum of six, must have had to fulfil this criterion and the coefficient of determination (r^2) was set at ≥0.98.
BT2 formulation analysis using liquid chromatography mass spectrometry (LC/MS). DMSO (100 μl) and samples (˜50 μl) were combined along with formic acid (1 μl). These solutions (10 μl) were further diluted with H2O:CH3CN (1:1) 0.1% formic acid (90 μl) for LC/MS analysis. Samples were separated by UPLC using an HPG-3400RS UPLC pump, autosampler and column compartment system (Thermo Scientific, CA). Samples (0.1 μl) were loaded onto a Hypersil Gold aQ column (2.1×50 mm) containing 1.9μ media (Thermo Scientific). Compounds were eluted using a linear gradient of H2O:CH3CN with A containing H2O (0.1% formic acid) and B containing H2O:CH3CN (1:4, 0.1% formic acid). The gradient was: T=0 min 2% B, T=20 min 75% B, T=23 min 95% B, T=25 min, 95% B, T=25.2 min 2% B, T=30 min, 2% at 200 μl/min over 30 min. The column oven was heated to 45° C. Positive ions were generated by electrospray and the QExactive Plus mass spectrometer (Thermo Fisher, Bremen, Germany) operated in data dependent acquisition mode (DDA). The heated electrospray source (HESI) was used with a high voltage 3.8 kV applied; a vaporizer temp of 250° C.; sheath gas 20; aux gas 5 and the heated capillary set to T=290° C. […]

SMILES: CCOC(=O)Nc1ccc2c(c1)C(=O)N(CC)c1ccccc1O2 [BT2, (10-ethyl-11-oxo-10,11-dihydro-dibenzo[b,f][1,4]oxazepin-2-yl)-carbamic acid ethyl ester]
- stability of formulation after autoclaving (autoclaved (121° C., 15 psi, 20 min), 4 months storage at 22° C., LC/MS): remained stable
- discrepancy in BT2 content (heat-treated formulation (100° C. for 10 min), RRLC-MS/MS): 1%
- degradation of stored formulation (heat-treated or not, storage up to 16 months, RRLC-MS/MS): no loss in biological efficacy or degradation
- discrepancy in BT2 content (non-heat treated formulation, RRLC-MS/MS): 0.2%
